Assay results from PubChem BioAssay (NCI).
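Assay format: 96-well plates, 48-hour exposure. Definition used: TGI = concentration required for complete inhibition of growth.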

Assays:
Assay in all cases: inhibition of tumour cell growth, NCI panel, 48 h
DLD-1 colon = test system: DLD-1 colon
DMS 273 small cell lung = test system: DMS 273 small cell lung
HOP-18 NSCLC = test system: HOP-18 NSCLC
KM20L2 colon = test system: KM20L2 colon
LXFL 529 NSCLC = test system: LXFL 529 NSCLC
SNB-78 CNS = test system: SNB-78 CNS
XF 498 CNS = test system: XF 498 CNS
RXF-631 renal = test system: RXF-631 renal
DMS 114 small cell lung = test system: DMS 114 small cell lung

Structure (SMILES): Cc1ccc(NCC(=O)N2CC(=O)Nc3ccccc32)c(C)c1
- TGI (DLD-1 colon): > 100 µM
- TGI (DMS 273 small cell lung): > 100 µM
- TGI (HOP-18 NSCLC): > 100 µM
- TGI (KM20L2 colon): > 100 µM
- TGI (LXFL 529 NSCLC): > 100 µM
- TGI (SNB-78 CNS): > 100 µM
- TGI (XF 498 CNS): > 100 µM

Structure (SMILES): CS(=O)(=O)OC1CCC2(C#N)CCC1C2=O (stereo not given)
- TGI (DLD-1 colon): > 100 µM
- TGI (DMS 273 small cell lung): > 100 µM
- TGI (HOP-18 NSCLC): > 100 µM
- TGI (KM20L2 colon): > 100 µM
- TGI (LXFL 529 NSCLC): > 100 µM
- TGI (RXF-631 renal): > 100 µM
- TGI (SNB-78 CNS): > 100 µM
- TGI (XF 498 CNS): > 100 µM

Structure (SMILES): CC(C)=CC1C[C@H](C2CC=C3C2(C)CCC2[C@@]3(C)C(=O)CC3[C@]2(C)C=CC(=O)[C@]3(C)CO)CO1 (stereo not given in full)
- TGI (DMS 114 small cell lung): 15.9 µM
- TGI (DMS 273 small cell lung): 18.4 µM
- TGI (HOP-18 NSCLC): 30.1 µM
- TGI (KM20L2 colon): 19.1 µM
- TGI (LXFL 529 NSCLC): 12.1 µM
- TGI (SNB-78 CNS): 48.4 µM
- TGI (XF 498 CNS): 12.9 µM

Structure (SMILES): O=c1cc(-c2ccccc2)c2ccccc2[nH]1
- TGI (DLD-1 colon): > 100 µM
- TGI (DMS 114 small cell lung): 51.4 µM
- TGI (DMS 273 small cell lung): > 100 µM
- TGI (HOP-18 NSCLC): > 100 µM
- TGI (LXFL 529 NSCLC): > 100 µM

Structure (SMILES): Cc1c2ccncc2c(C)c2c1[nH]c1ccc(OC(C)C)cc12
- TGI (DLD-1 colon): 3.13 µM
- TGI (DMS 114 small cell lung): 3.24 µM
- TGI (DMS 273 small cell lung): 2.07 µM
- TGI (HOP-18 NSCLC): 2.93 µM
- TGI (KM20L2 colon): 2.59 µM
- TGI (LXFL 529 NSCLC): 2.1 µM
- TGI (SNB-78 CNS): 6.05 µM
- TGI (XF 498 CNS): 2.91 µM
